Data taken from the supplement of paper PMC10307832.

How the values were obtained:
Experiment in all cases: relative viability (nuclei count vs DMSO), 5 days (fraction); higher = more cells survive
[1] = compound: CN(C/C=C/C1=CC=C(C=C1)Cl)CC2=CC=CC=C2N(CCO)S(=O)(=O)C3=CC=C(C=C3)OC [KN-93]
Outline: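 Only plates meeting two conditions passed: control CV below 25% and at least one doubling. Lung cancer cell lines, kept overnight at 37 °C in 1536-well plates, were pinned with five library-drug doses (not always all listed) √10 apart on vehicle-anchored plates and grown 5 days without medium change. A one-step fix, permeabilisation and Hoechst stain preceded 4× imaging and MetaXpress nuclear counting. Viability equals treated-well nuclei divided by vehicle-well nuclei, as the median over plates.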

[2] = compound: CN(C/C=C/C1=CC=C(C=C1)Cl)CC2=CC=CC=C2N(CCO)S(=O)(=O)C3=CC=C(C=C3)OC [KN-93] + C[C@]1(O)C[C@@H](c2nc(-c3ccc4ccc(-c5ccccc5)nc4c3)c3c(N)nccn32)C1 [Linsitinib] (partner 1 µM)
Outline: (§1)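 For relative viability, nuclei counts in treated wells were divided by those in vehicle wells. Lung cancer cell lines had been pin-tool dosed in 1536-well plates the day after seeding and cultured for 5 days, then fixed and stained in one step (final 0.05% Triton X-100, 1% formaldehyde, 1 ug/ml Hoechst) and imaged at 4×. Doses were one drug alone or a fixed anchor-drug dose plus five library-drug doses (not always all listed) in √10 steps, and values are duplicate-plate medians.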

[3] = compound: CN(C/C=C/C1=CC=C(C=C1)Cl)CC2=CC=CC=C2N(CCO)S(=O)(=O)C3=CC=C(C=C3)OC [KN-93] + COc1cc2c(Oc3ccc(NC(=O)C4(C(=O)Nc5ccc(F)cc5)CC4)cc3F)ccnc2cc1OCCCN1CCOCC1 [Foretinib] (partner 0.25 µM)
Outline: as §1

[4] = compound: CN(C/C=C/C1=CC=C(C=C1)Cl)CC2=CC=CC=C2N(CCO)S(=O)(=O)C3=CC=C(C=C3)OC [KN-93] + N=C(N)NC(=N)NCCc1ccccc1 [Phenformin] (partner 250 µM)
Outline: as §1

[5] = compound: CN(C/C=C/C1=CC=C(C=C1)Cl)CC2=CC=CC=C2N(CCO)S(=O)(=O)C3=CC=C(C=C3)OC [KN-93] + C[C@@H](Oc1cc(-c2cnn(C3CCNCC3)c2)cnc1N)c1c(Cl)ccc(F)c1Cl [Crizotinib] (partner 1 µM)
Outline: as §1

Cell Line	relative viability ([1]; 0.08 µM)	relative viability ([1]; 0.253 µM)	relative viability ([1]; 2.53 µM)	relative viability ([1]; 8 µM)	relative viability ([2]; first compound 0.08 µM)	relative viability ([2]; first compound 0.253 µM)	relative viability ([2]; first compound 2.53 µM)	relative viability ([2]; first compound 8 µM)	relative viability ([3]; first compound 0.08 µM)	relative viability ([3]; first compound 0.253 µM)	relative viability ([3]; first compound 2.53 µM)	relative viability ([3]; first compound 8 µM)	relative viability ([4]; first compound 0.08 µM)	relative viability ([4]; first compound 0.253 µM)	relative viability ([4]; first compound 2.53 µM)	relative viability ([4]; first compound 8 µM)	relative viability ([5]; first compound 0.08 µM)	relative viability ([5]; first compound 0.253 µM)	relative viability ([5]; first compound 2.53 µM)	relative viability ([5]; first compound 8 µM)
NCI-H1944	0.885	0.885	0.942	0.803	1.29	1.21	1.11	1.02	0.831	0.835	0.709	0.557	0.172	0.216	0.218	0.195	1.24	1.24	1.18	0.953
COR-L23	0.848	1.09	1.08	0.665	0.683	1.07	0.887	0.577	0.907	1.08	1.14	0.654	0.432	0.569	0.583	0.387	0.697	0.764	0.673	0.455
NCI-H2405	1.03	1.02	1.03	0.728	0.984	0.908	0.924	0.564	1.05	0.995	1.01	0.75	0.379	0.479	0.718	0.354	0.853	0.832	0.873	0.665
SW 1573	0.862	1.13	1.02	0.514	0.906	0.884	0.714	0.349	0.863	0.91	0.933	1	0.319	0.389	0.454	0.275	0.766	0.926	0.822	0.33
EPLC-272H	0.899	0.965	0.92	0.59	1.15	1.27	1.21	0.871	0.621	0.762	0.573	0.389	0.276	0.299	0.276	0.25	1.05	1.01	1.04	0.661
HCC-366	0.835	1.1	1.11	0.863		0.706	0.844	0.334	0.909	1.02	0.796	0.379	0.595	0.661	0.639	0.277		0.609	0.68	0.129
NCI-H838	0.935	0.883	1.02	0.908	0.989	0.905	1.15	0.771	0.946	0.977	1.13	0.905	0.648	0.565	0.596	0.547	0.764	0.86	0.94	0.7
LU99A	0.953	0.951	1.01	0.74	0.535	0.541	0.497	0.461	0.884	0.896	0.817	0.676	0.91	0.88	0.774	0.676	0.529	0.703	0.566	0.504
NCI-H2085	0.951	1.01	1.05	0.81	0.782	0.967	0.929	0.633	1	0.994	1.05	0.664	0.698	0.796	0.815	0.655	0.815	1.17	0.921	0.565
HCC-15	0.862	1.03	1.08	0.893	0.85	1	0.802	0.728	0.914	1.12	1.11	0.807	0.401	0.522	0.685	0.42	0.664	0.961	0.795	0.682
NCI-H661	0.938	1.02	0.968	0.583	0.502	0.531	0.433	0.562	0.942	1.13	0.976	0.481	0.307	0.273	0.26	0.294	0.855	0.875	0.988	0.761
NCI-H1666	0.969	0.921	0.995	0.875	0.837	0.672	1.11	0.588	0.85	0.996	1.01	0.959	0.611	0.772	0.656	0.576	0.939	0.837	0.998	0.626
EMC-BAC-2	1.05	1.04	1.08	0.794	0.821	1	0.878	0.775	0.962	1.05	0.938	0.752	0.501	0.596	0.548	0.458	0.773	0.792	0.772	0.573
NCI-H1975	0.886	0.942	0.945	0.706	0.789	0.943	0.992	0.546	0.848	1.11	0.972	0.475	0.423	0.463	0.456	0.4	0.721	1.2	0.875	0.581
NCI-H1993	0.973	0.921	1.04	0.772	0.728	0.633	0.837	0.655	0.774	0.78	0.808	0.672	0.619	0.519	0.512	0.574	0.968	0.814	0.76	0.727
